The text below walks through data of US5232684A, “Labelled resiniferatoxin, compositions thereof, and methods for using the same” (priority 1990, dated 1993).

For test [1], the target named is T1, capsaicin receptor (pig DRG membranes) (Sus scrofa, UniProt F1RLJ0).
T1 construct: tissue Mt; Airy Locker Co., Mt; Airy, MD; host or cells: pig dorsal root ganglia
The experiment in a line: biochemical. Type of test: binding. Particulars: for inhibition of [^3H]RTX binding: 30 uM; for inhibition of specific [^3H]RTX binding: Table 1, 200 nM or 2 μM; for inhibition of / competition for [^3H]RTX binding (words): biologically effective concentrations, Table 1, 10 μM, 10 µM. Here is the method: (§1) Membrane preparations are obtained from the DRG and Gasser ganglia of female Sprague-Dawley rats (250-300 g); animals are sacrificed by decapitation under ether anesthesia, the ganglia removed and collected into ice-cold disrupting buffer (5 mM KCl, 5.8 mM NaCl, 2 mM MgCl2, 12 mM glucose, 137 mM sucrose, 10 mM HEPES, 5 mM DTT, 2 mM EGTA, pH 7.4). After homogenization with the aid of a Polytron tissue homogenizer, samples are filtered over surgical gauze and then washed twice with the same buffer and stored at -70° C. Particulate fractions are obtained from other rat neural tissues (cerebellum, spinal cord, preoptic region, striatum, substantia nigra) and from DRG of pigs (Mt. Airy Locker Co., Mt. Airy, MD), sheep, cows (kindly provided by Dr. Solomon, USDA, Beltsville, MD), and chickens (Truslow Farms, Chesterton, MD) by a similar procedure.
Subcellular fractions are prepared by a modification of the method of Bastiaensen et al. (Bastiaensen, E., Miserez, B. and De Potter, W., Subcellular fractionation of bovine ganglion stellatum: co-storage of noradrenaline, Met-enkephalin and neuropeptide Y in large `dense-cored` vesicles, Brain Res., 442 (1988) 124-130. ) Briefly: DRG are dissected free from capsule, cut into small pieces with scissors, and then homogenized with a teflon pestle (20 strokes) in ice-cold 0.25 M sucrose/ 20 mM Tris-Cl (pH 7.4) buffer. The homogenate is filtered over surgical gauze; it is then centrifuged for 10 min at 2000 gmax, giving a pellet P1, and again at 10 000 gmax for 15 min giving a pellet P2. The P1 and P2 pellets are saved as nuclear and mitochondrial fractions for binding studies. The resulting supernatant is further centrifuged at 50 000 gmax for 60 min, and then the pellet is harvested as the plasma-membrane enriched microsomal fraction.
(§2) The binding assays are carried out in a volume of 250 ul, containing assay buffer (same as the disrupting buffer but omitting DTT and EGTA and including 0.75 mM CaCl2), 26-30 ug of membrane protein and 0.25 mg/ml bovine serum albumin. […] Tubes are kept on ice while the additions are made. The assay mixture is incubated for 10 min at 37° C.; it is then cooled on ice. 150 ul of the mixture is pipetted onto Whatman GF/C or GF/F glass fiber filters presoaked with 10 mg/ml bovine serum albumin in 20 mM Tris-Cl (pH 7.4) and filtered immediately. An aliquot of 50 ul of the mixture is removed to determine total radioactivity. The filters are washed with 100 ml of ice-cold 20 mM Tris-Cl, pH 7 4, containing 0.1 mg/ml bovine serum albumin, and the bound radioactivity is determined by scintillation counting. Non-specific binding is determined in the presence of 100-1000 nM non-radioactive RTX.
(§3) Binding data from saturation experiments using increasing concentrations of hot ligand are analyzed using the collection of computer programs described by McPherson (McPherson, G.A., Analysis of radioligand binding experiments: a collection of computer programs for the IBM PC, J.Pharmacol.Methods, 14 (1985) 213-228).
(§4) Scatchard and Hill transformations are performed by the Equilibrium Binding Data Analysis program referred to as EBDA. Data are further analyzed by the curvilinear regression program LIGAND (Munson, R.J. and Rodbard, D., LIGAND: a versatile computerized approach for characterization of ligand-binding systems, Anal.Biochem, 107 (1980) 220-239).
RTX binding is also analyzed in the presence of a fixed, low (60 pM or 300 pM) concentration of [^3 H]RTX and increasing concentrations of non-radioactive RTX or other ligand.

Test [2] has as its target protein kinase C. The experiment in a line: [^3H]PDBu binding, pig DRG membranes. Particulars: read-out: Kd for [^3H]PDBu binding to membrane preparations.
Test [3] has as its target protein kinase C. The experiment in a line: [^3H]phorbol 12,13-dibutyrate binding, rat DRG membranes. The text has this: The side chain at C20 is essential for the capsaicin-like 25 activity of RTX (Szallasi, A., Sharkey, N.A. and Blumberg, P.M., Structure-activity analysis of resiniferatoxin analogs, Phytotherapy Res., 6: 253-257, 1990).
For test [4], the target named is T2, capsaicin receptor (rat Gasser ganglia) (Rattus norvegicus, UniProt O35433).
T2 construct: from tissue; host or cells: Gasser ganglia of female Sprague-Dawley rats
T2 sequence (O35433 whole entry): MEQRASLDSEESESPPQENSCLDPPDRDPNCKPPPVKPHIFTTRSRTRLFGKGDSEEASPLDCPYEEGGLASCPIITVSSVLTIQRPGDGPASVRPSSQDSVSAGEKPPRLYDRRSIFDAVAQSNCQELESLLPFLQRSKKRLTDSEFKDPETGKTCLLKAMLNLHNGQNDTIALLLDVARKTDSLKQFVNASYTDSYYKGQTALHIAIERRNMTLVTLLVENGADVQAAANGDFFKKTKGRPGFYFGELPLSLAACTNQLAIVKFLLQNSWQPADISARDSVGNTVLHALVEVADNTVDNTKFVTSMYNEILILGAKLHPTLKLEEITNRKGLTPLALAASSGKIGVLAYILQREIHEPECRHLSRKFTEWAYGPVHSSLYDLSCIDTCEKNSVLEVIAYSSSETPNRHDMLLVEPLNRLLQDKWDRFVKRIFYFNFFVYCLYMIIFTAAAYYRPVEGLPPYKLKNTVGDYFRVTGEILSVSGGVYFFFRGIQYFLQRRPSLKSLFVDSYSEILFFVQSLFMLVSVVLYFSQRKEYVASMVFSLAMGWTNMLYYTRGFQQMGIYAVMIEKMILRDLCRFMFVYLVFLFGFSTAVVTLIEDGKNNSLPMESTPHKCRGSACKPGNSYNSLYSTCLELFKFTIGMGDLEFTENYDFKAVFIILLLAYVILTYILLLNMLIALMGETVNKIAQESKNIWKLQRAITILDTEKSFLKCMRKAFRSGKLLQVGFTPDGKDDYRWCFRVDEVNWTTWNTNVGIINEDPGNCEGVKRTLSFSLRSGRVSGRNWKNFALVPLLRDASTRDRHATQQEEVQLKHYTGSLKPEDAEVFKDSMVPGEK
The experiment in a line: biochemical. Type of test: binding. Particulars: for activity at 30 µM: read-out: % of specific [^3H]RTX binding measured in the absence of the tested compound ± SEM. On the procedure: as §1, §2, §3, §4
(§5) RTX binding is also analyzed in the presence of a fixed, low (60 pM or 300 pM) concentration of [^3 H]RTX and increasing concentrations of non-radioactive RTX or other ligand. […] The Ki value for RTX is calculated from the relationship Ki =ID50 -L; the Ki values for other ligands are calculated from the general form of the equation (Cheng, Y.C. and Prusoff, W.H., Relation between the inhibition constant (Ki) and the concentration of inhibitor which causes 50 per cent inhibition (I50) of an enzymatic reaction, Biochem. Pharmacol., 22 (1973) 3099-3108) Ki =IC50 /(1+L/Kd) where L=concentration of labelled ligand and Kd =dissociation constant of radioactive ligand as determined in the saturation experiments using variable concentrations of hot ligand. Comparison of the quality of fit using single and multiple site competition models is performed by the LIGAND program.
Gasser ganglia represents the […] homolog of the dorsal root ganglia.

Test [5] addresses T3, capsaicin receptor (rat DRG membranes) (Rattus norvegicus, UniProt O35433).
T3 construct: membrane preparations from dorsal root ganglia (DRG) of female Sprague-Dawley rats; from tissue; host or cells: dorsal root ganglia of female Sprague-Dawley rats
Kind of test: biochemical. It is filed as binding. The note with it: for activity at 0.2 µM: 10 min, read-out: % of specific [^3H]RTX binding measured in the absence of the tested compound ± SEM. Here is the method:
as §1, §2, §3, §4, §5
[^3 H]RTX binding is examined using membrane preparations from dorsal root ganglia (DRG) of female Sprague-Dawley rats.

In test [6] the test system is capsaicin desensitization of sensory fibers. The note with it: cited from earlier work.
Test [7] concerns mitochondrial NADH-Coenzyme Q oxidoreductase. The note with it: high capsaicin concentrations; cited from earlier work.
The conditions of test [8]: RTX versus capsaicin, cited from earlier work.
The conditions of test [9]: RTX versus capsaicin; cited from earlier work.
Test [10] concerns rats. The note with it: 300 ug/kg RTX s.c.; cited from earlier work.
Setting [11] is: 10 min, pig DRG, 30 μM, read-out: % of specific [^3H]RTX binding measured in the absence of the tested compound ± SEM.

“Also recorded” adds a separate entry of the source. Read-outs that look alike come from different tables or passages of the source.

Broadly, the Ki is a measure of affinity in units of concentration, obtained from inhibition or displacement.

T3 sequence (O35433 whole entry): as above
T1 sequence (F1RLJ0 1-841): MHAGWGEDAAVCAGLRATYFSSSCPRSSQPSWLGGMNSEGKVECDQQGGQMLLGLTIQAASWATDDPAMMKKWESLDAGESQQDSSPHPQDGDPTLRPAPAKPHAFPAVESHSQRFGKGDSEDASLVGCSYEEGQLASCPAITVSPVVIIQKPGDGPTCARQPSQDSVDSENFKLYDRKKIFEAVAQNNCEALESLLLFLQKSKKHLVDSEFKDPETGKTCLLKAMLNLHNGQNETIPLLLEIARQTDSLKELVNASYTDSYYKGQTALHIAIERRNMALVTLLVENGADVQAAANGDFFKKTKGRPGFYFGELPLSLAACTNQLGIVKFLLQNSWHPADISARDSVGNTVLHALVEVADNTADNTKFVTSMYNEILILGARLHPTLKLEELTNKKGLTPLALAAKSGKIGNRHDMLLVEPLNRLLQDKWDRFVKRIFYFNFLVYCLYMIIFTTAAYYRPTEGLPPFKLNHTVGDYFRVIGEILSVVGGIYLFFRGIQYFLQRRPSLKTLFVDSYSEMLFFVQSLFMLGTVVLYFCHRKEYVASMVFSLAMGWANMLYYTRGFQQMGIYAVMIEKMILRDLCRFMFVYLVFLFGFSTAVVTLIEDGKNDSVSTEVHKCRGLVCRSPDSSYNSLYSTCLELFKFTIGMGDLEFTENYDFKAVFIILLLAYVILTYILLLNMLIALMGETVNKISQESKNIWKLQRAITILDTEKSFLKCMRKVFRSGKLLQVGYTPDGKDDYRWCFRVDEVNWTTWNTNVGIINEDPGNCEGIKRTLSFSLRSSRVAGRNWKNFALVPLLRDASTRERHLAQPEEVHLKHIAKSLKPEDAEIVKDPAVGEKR

With `NC[C@H](O)c1ccc(O)c(O)c1` [norepinephrine], the “competition for [^3H]RTX binding sites” value in test [1] (pig DRG, 100 uM) is “does not compete”.

For “[^3 H]phorbol 12,13-dibutyrate [[^3 H]PDBu]”, the Kd in test [2] was 11.5 nM; in test [3] (rat DRG, read-out: Kd for [^3H]PDBu binding to membrane preparations), 8.5 nM.

With `NCCc1ccc(O)c(O)c1` [dopamine], in test [1], the “competition for [^3H]RTX binding sites” value is given as “does not compete”.

For the molecule `CNC[C@H](O)c1ccc(O)c(O)c1` [epinephrine], the “competition for [^3H]RTX binding sites” value in test [1] was “does not compete”.

With `O=C(/C=C/C=C/c1ccc2c(c1)OCO2)N1CCCCC1` [piperine], the activity at 30 µM in [1] (setting [11]) worked out at 109 ± 2%; in [4] (rat Gasser ggl, 30 μM), 118%. In addition, in test [1] (pig DRG), the “inhibition of [^3H]RTX binding” value is on record as “does not inhibit or does so more weakly”.

Consider `C=C(C)[C@]12C[C@@H](C)[C@@]34O[C@](Cc5ccccc5)(O[C@@H]1[C@@H]3C=C(CO)C[C@]1(O)C(=O)C(C)=C[C@@H]41)O2` [ROA, resiniferonol 9,13,14-orthophenylacetate], for which, in [5] (rat DRG, 200 nM), the activity at 0.2 µM is 106%. In [1] (10 min, pig DRG, 2 μM, read-out: % of specific [^3H]RTX binding measured in the absence of the tested compound ± SEM), the activity at 2 µM worked out at 105 ± 6%. The “inhibition of specific [^3H]RTX binding” value in test [1] is “inhibited neither”.

`N.N.N.N.N.N.N.N.N.N.N.N.N.N.[Cl-].[Cl-].[Cl-].[Cl-].[Cl-].[Cl-].[O-2].[O-2].[Ru+3].[Ru+3].[Ru+4]` [ruthenium red]: the “effect on (capsaicin) desensitization” value in test [6] is on record as “block capsaicin desensitization; also recorded: blocks the desensitization”. The results for the “inhibition of / competition for [^3H]RTX binding (words)” value in test [1] and in test [1] (listed as Ruthenium red) were “fails to compete” and “fails to inhibit”, respectively. Also, in [1] (pig DRG (by column position), 10 μM, n = 2), the “% of specific [^3H]RTX binding measured in the absence of the tested compound ± SEM” value (shortened to “% of specific … of the tested compound ± SEM”) came out at 109%.

As to `COc1cc(CNC(=O)CCCC/C=C/C(C)C)ccc1O` [capsaicin], in test [7], the “inhibition of NADH-Coenzyme Q oxidoreductase” value is recorded as “inhibited at high capsaicin concentrations”. Also, the Ki in test [1] was 14000 ± 2000 nM. Besides, the “% of specific … of the tested compound ± SEM” value in test [1] (pig DRG, 30 μM, 10 min) was determined as 28 ± 4%; in test [4] (gasser ganglia membranes, 30 µM) it was 30 ± 11.

On to `COc1cc(CCC(C)=O)ccc1O` [zingerone], for which the activity at 30 µM in test [1] (setting [11]) is 92 ± 7%; in [4] (rat Gasser ggl, 30 μM) it was 111%. The “inhibition of [^3H]RTX binding” value in test [1] (pig DRG) is “does not inhibit or does so more weakly”.

`N[C@@H](Cc1ccc(O)c(O)c1)C(=O)O` [L-DOPA]: the “competition for [^3H]RTX binding sites” value in test [1] (pig DRG, 100 uM) is recorded as “does not compete”.

For the molecule `CCCC(=O)O[C@@H]1[C@@H](C)[C@@]2(O)[C@@H](C=C(CO)C[C@]3(O)C(=O)C(C)=C[C@@H]23)[C@@H]2C(C)(C)[C@]12OC(=O)CCC` [PDBu, phorbol 12,13-dibutyrate], the activity at 0.2 µM in [5] came out at 106 ± 9%; in test [1] (10 min, read-out: % of specific [^3H]RTX binding measured in the absence of the tested compound ± SEM), 100 ± 2%. Also, the “inhibition of specific [^3H]RTX binding” value in test [1] is “inhibited neither”.

For `COc1cc(CNC(=O)CCCCCCC(C)C)ccc1O` [dihydrocapsaicin], the “inhibition of [^3H]RTX binding” value in test [1] (pig DRG) is reported as “inhibits to a similar degree as does capsaicin”. Besides, the “% of specific … of the tested compound ± SEM” value in test [1] (pig DRG, 30 μM, 10 min) worked out at 33 ± 5%; in [4] (rat Gasser ggl, 30 μM), 22%.

In the case of `C=C(C)[C@]12C[C@@H](C)[C@@]34O[C@](Cc5ccccc5)(O[C@@H]1[C@@H]3C=C(COC(=O)Cc1ccc(O)c(OC)c1)C[C@]1(O)C(=O)C(C)=C[C@@H]41)O2` [RTX, resiniferatoxin], the Ki in [5] (rat DRG, 60 pM [^3H]RTX, 30 pM to 3 nM non-radioactive RTX, mean±SEM, 3 determinations, read-out: Ki, competition of [^3H]RTX binding) was found to be 0.11 ± 0.04 nM; in test [1] (pig DRG, mean±SEM, 4 determinations, read-out: Ki, inhibition of [^3H]RTX binding), 2.4 ± 0.3 nM; in test [1] (pig DRG, one site model, read-out: Ki (LIGAND analysis)), 2.2 nM. For the same molecule, the “fold more potent than capsaicin / difference in potencies for induction of hypothermia or neurogenic inflammation” value in test [8] is reported as 10^3 -10^4 fold; in test [8] (listed as resiniferatoxin), “up to 10^4 fold”. Besides, the “inhibition of specific [^3H]phorbol 12,13-dibutyrate binding to protein kinase C” value in test [3] (rat DRG preparations) is given as “only at uM concentrations”. Besides, the “potency for induction of pain relative to capsaicin” value in test [9] is given as “comparable in potency”. The “loss of specific [^3H]RTX binding after addition of excess non-radioactive RTX” value in [1] (pig DRG membranes, by 10 min at 37° C.) was “complete loss of specific binding”. Further, the “time to expression of desensitization” value in test [10] is 1 to 4 h.
